Measured values published in PubChem BioAssay (NCI).
Where “and” joins values, the source holds several entries; their conditions need not be identical. Identical values can stand only once.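 Method: 48-hour compound exposure of cells in 96-well plates, five concentrations, linear interpolation of endpoints. GI50 = concentration required for 50% inhibition of growth. TGI denotes the concentration required for complete inhibition of growth.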 Where a SMILES comes first, the peptide text is derived from it. [ ]: non-standard residue; d: D form. The star is where a group is joined. ξ: configuration not given here. NMeY = CN[C@@H](Cc1ccc(O)cc1)C(=O)O; Cbz = O=C(OCc1ccccc1)*; ξA = CC(N)C(=O)O

What was measured:
Experiment in all cases: inhibition of tumour cell growth, NCI panel, 48 h
IGROV1 ovarian = system: IGROV1 ovarian
T-47D breast = system: T-47D breast
M14 melanoma = system: M14 melanoma
SN12C renal = system: SN12C renal
MDA-MB-435 = system: MDA-MB-435
TK-10 renal = system: TK-10 renal
UACC-257 melanoma = system: UACC-257 melanoma
NCI-H522 lung = system: NCI-H522 lung
ACHN renal = system: ACHN renal

Compound	TGI (IGROV1 ovarian)	TGI (T-47D breast)	TGI (M14 melanoma)	TGI (SN12C renal) [µM]	TGI (MDA-MB-435)	TGI (TK-10 renal) [µM]	TGI (UACC-257 melanoma)	TGI (NCI-H522 lung)	TGI (ACHN renal)	GI50 (IGROV1 ovarian) [µM]	GI50 (T-47D breast) [µM]	GI50 (M14 melanoma) [µM]	GI50 (SN12C renal) [µM]	GI50 (MDA-MB-435) [µM]	GI50 (TK-10 renal) [µM]	GI50 (UACC-257 melanoma) [µM]	GI50 (NCI-H522 lung) [µM]	GI50 (ACHN renal) [µM]
COc1ccc(C[C@@H](C(=O)NCC(N)=O)N(C)C(=O)[C@@H]2CCCN2C(=O)[C@H](CC(C)C)NC(=O)C(C)NC(=O)OCc2ccccc2)cc1 (some centres not stated) (Cbz-[ξA]LP[NMeY](Me)G-NH2)	> 100 µM	> 100 µM	> 100 µM	> 100	> 100 µM	> 100	> 100 µM	> 100 µM	> 100 µM	–	–	–	–	–	–	–	–	–
CC1CN=C(c2cccc(OCc3ccc(COc4cccc(C5=NCC(C)N5)c4)cc3)c2)N1 (configuration not stated)	> 100 µM	> 100 µM	> 100 µM	> 100	> 100 µM	> 100	44.8 µM	> 100 µM	> 100 µM	–	–	–	–	–	–	–	–	–
NC(N)=N/N=C(\c1ccc(Cl)cc1)C1CC1	31.8 µM	64.4 µM	30 µM	42.3	34.7 µM	29.9	28 µM	31.3 µM	57.7 µM	–	–	–	–	–	–	–	–	–
Cc1cccc(NC(=O)CC(=O)N2N=C(N3c4ccccc4Sc4ccccc43)CC2c2ccccc2)c1 (configuration not stated)	> 100 µM	> 100 µM	> 100 µM	> 100	> 100 µM	> 100	> 100 µM	> 100 µM	> 100 µM	–	–	–	–	–	–	–	–	–
CN(C)CCCn1c2ccccc2c2cnccc21	> 100 µM	> 100 µM	33 µM	74.6	> 100 µM	84.9	39.3 µM	> 100 µM	> 100 µM	–	–	–	–	–	–	–	–	–
COc1cn2c(cc1=O)COc1ccc(-c3ccccc3)cc1-2	> 100 µM	> 83.3 µM	> 100 µM	> 100	> 100 µM	> 79.8	> 87.1 µM	> 100 µM	> 100 µM	–	–	–	–	–	–	–	–	–
Oc1ccc2ccccc2c1-c1nnc(CCCCCCCCc2nnc(-c3c(O)ccc4ccccc34)o2)o1	25 µM and 98.6 µM	25 µM and > 100 µM	25 µM and 55.1 µM	–	25 µM and > 100 µM	> 100	25 µM and > 100 µM	5.82 µM and 24.2 µM	25 µM and > 55.3 µM	11.6	1.67	4.77	0.428	3.5	> 25	2.26	1.53	1.28
CC1=NN(c2ccc(C)cc2)C2(C1)SCC(=O)N2c1nc2ccccc2s1 (configuration not stated)	> 100 µM	67.1 µM	> 100 µM	52.2	> 100 µM	74.4	55.1 µM	52.6 µM	> 100 µM	–	–	–	–	–	–	–	–	–
O=C1c2cc([N+](=O)[O-])ccc2NC2C(O)c3ccccc3N12 (configuration not stated)	75.3 µM	49.6 µM	> 100 µM	> 100	> 100 µM	58.1	55.3 µM	38.7 µM	80.7 µM	–	–	–	–	–	–	–	–	–
CCCCn1cc(C(=O)O)c(=O)c2c3sccc3ccc21	> 100 µM	> 100 µM	> 100 µM	> 100	> 100 µM	> 100	> 100 µM	> 100 µM	> 100 µM	–	–	–	–	–	–	–	–	–
Oc1c2cccc1Cc1cccc3c1OCCOCCOCCOCCOc1c(cccc1Cc1cccc(c1O)C3)C2	> 100 µM	> 100 µM	> 100 µM	> 100	> 100 µM	> 100	> 100 µM	> 100 µM	> 100 µM	–	–	–	–	–	–	–	–	–
CCCCC[C@H](O)[C@H](C)C=C1SCCCS1	> 100 µM	> 100 µM	> 100 µM	> 100	> 100 µM	> 100	> 100 µM	> 100 µM	> 100 µM	–	–	–	–	–	–	–	–	–
CC(C)=CCN(N=O)c1ncnc2nc[nH]c12	> 100 µM	> 100 µM	> 100 µM	> 100	> 100 µM	> 100	> 100 µM	> 100 µM	> 100 µM	–	–	–	–	–	–	–	–	–
O=C1C/C(=C\O)C(=O)c2ccccc2N1	> 100 µM	> 100 µM	> 100 µM	> 100	> 100 µM	> 100	> 100 µM	> 100 µM	> 100 µM	–	–	–	–	–	–	–	–	–
CC1=NNC(N)=N/C1=C/C(Sc1ccc(Cl)cc1)c1cccs1 (configuration not stated)	29 µM	62.2 µM	28 µM	99.7	55.3 µM	> 100	45.5 µM	18.2 µM	42.5 µM	–	–	–	–	–	–	–	–	–
COc1cc(C(=O)Nc2nnc(S(N)(=O)=O)s2)cc(OC)c1OC	–	> 100 µM	> 100 µM	> 100	> 100 µM	> 100	> 100 µM	> 100 µM	> 100 µM	–	–	–	–	–	–	–	–	–
COc1ccccc1C1C(C#N)=C(N)OC2=C1C(=O)CCC2 (configuration not stated)	> 100 µM	> 100 µM	> 100 µM	–	> 100 µM	> 100	> 100 µM	> 100 µM	> 100 µM	> 100	> 100	> 100	–	> 100	> 100	> 100	> 100	> 100
